# Data taken from patent US12673946B2, “Pyrimidin-4(3H)-one derivatives as TRPV4 antagonists” (RaQualia Pharma Inc., priority 2020, dated 2026).
# Target: T1, human TRPV4 (Homo sapiens, UniProt Q9HBA0)
# T1 construct: host or cells: tetracycline-inducible Flp-In T-REx 293 cells
# Test: Hypotonicity-induced Ca2+ influx (Fluo-4, FDSS)
# Assay type: cell-based
# Outline: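 Flp-In T-REx 293 cells with tetracycline-induced human TRPV4, loaded with Fluo-4 for 60 min at 25 °C. Compound added 5 min before hypotonic mannitol/CaCl2 solution. Ca2+ signal recorded for 4.5 min on FDSS.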
# [1] = Flp-In T-REx 293 cells expressing human TRPV4, examples listed under heading 'Human IC50<50 nM'
# [2] = Flp-In T-REx 293 cells stably expressing human TRPV4, compounds listed by potency bin (<10 nM Tables 96-1/96-2, <3 nM Table 97)
# T1 sequence (Q9HBA0 whole entry): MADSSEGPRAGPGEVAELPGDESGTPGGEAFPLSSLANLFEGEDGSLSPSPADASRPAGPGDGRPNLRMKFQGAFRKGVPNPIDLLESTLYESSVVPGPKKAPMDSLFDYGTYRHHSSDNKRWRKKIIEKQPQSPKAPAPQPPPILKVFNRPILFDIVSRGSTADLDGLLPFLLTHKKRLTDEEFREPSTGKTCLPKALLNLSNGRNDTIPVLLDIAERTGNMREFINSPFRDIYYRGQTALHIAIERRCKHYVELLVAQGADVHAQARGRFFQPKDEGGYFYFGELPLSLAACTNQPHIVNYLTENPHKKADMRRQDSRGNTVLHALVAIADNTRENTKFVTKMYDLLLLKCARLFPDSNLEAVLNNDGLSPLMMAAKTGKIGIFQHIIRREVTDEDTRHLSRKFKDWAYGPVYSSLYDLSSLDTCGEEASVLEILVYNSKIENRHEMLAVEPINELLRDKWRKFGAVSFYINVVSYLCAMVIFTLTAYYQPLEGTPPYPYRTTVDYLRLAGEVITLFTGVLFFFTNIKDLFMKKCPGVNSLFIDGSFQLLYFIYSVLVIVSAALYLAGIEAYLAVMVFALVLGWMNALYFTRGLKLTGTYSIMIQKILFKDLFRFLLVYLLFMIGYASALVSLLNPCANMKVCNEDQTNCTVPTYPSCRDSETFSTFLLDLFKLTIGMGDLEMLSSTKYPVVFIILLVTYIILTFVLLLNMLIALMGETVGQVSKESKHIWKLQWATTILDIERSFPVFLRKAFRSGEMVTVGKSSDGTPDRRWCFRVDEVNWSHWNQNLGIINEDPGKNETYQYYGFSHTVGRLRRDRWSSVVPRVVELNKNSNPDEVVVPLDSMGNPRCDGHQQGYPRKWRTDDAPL
SMILES,IC50 [1] [nM],IC50 [2] [nM]
O=C([C@H](O)c1cccc(Cl)c1)N1CCCc2nc(C3(c4cccc(C5CCCC5)c4)CC3)[nH]c(=O)c2C1 [29-3],< 50,< 3
O=C(Cc1cccc(C2CC2)c1)N1CCCc2nc(C3(c4cccc(Cl)c4)CC3)[nH]c(=O)c2C1 [17-116],< 50,< 10
N#Cc1cc(F)cc(-c2cccc(C3(c4nc5c(c(=O)[nH]4)CN(C(=O)[C@H](O)c4cccc(C(F)(F)F)c4)CCC5)CC3)c2)c1 [42-69],< 50,< 10
O=C([C@H](O)c1cccc(-c2cc(F)cc(Cl)c2)c1)N1CCc2nc(C3(c4cccc(Cl)c4)CC3)[nH]c(=O)c2C1 [45-9],< 50,–
O=C(N1CCCc2nc(C3(c4cccc(Cl)c4)CC3)[nH]c(=O)c2C1)C(F)(F)c1cccc(C(F)(F)F)c1 [20-4],< 50,< 3
CC(C)c1csc(C2(c3nc4c(c(=O)[nH]3)CN(C(=O)[C@H](O)c3cccc(C(F)(F)F)c3)CCC4)CC2)c1 [18-1],< 50,< 3
CC(C)(C)c1cccc(-c2cccc(C(O)C(=O)N3CCCc4nc(C5(c6cncc(-c7ccccc7)c6)CC5)[nH]c(=O)c4C3)c2)c1 (stereo not drawn) [56-3],< 50,< 3
O=C([C@H](O)c1cccc(C(F)(F)F)c1)N1CCCc2nc(C3(c4cccc(-c5ccc(N6CCC(OCc7ccccc7)CC6)nc5)c4)CC3)[nH]c(=O)c2C1 [42-88],< 50,< 3
O=C(Cc1cccc(C(F)(F)F)c1)N1CCCc2nc(C3(c4ccccc4)CC3)[nH]c(=O)c2C1 [17-51],< 50,–
O=C(C(O)c1cccc(-c2cccc(F)c2)c1)N1CCCc2nc(C3(c4ccccc4)CC3)[nH]c(=O)c2C1 (stereo not drawn) [49-9],< 50,< 10
O=C(Cc1ccc(COc2ccccc2)cc1)N1CC=C(c2cccc(C3(c4nc5c(c(=O)[nH]4)CN(C(=O)[C@H](O)c4cccc(C(F)(F)F)c4)CCC5)CC3)c2)CC1 [42-79],< 50,< 10
O=C(c1cccc(-c2cccc(C3(c4nc5c(c(=O)[nH]4)CN(C(=O)[C@H](O)c4cccc(C(F)(F)F)c4)CCC5)CC3)c2)c1)N1CCCCC1 [42-9],< 50,< 3
N#CC1(c2ccc(-c3cccc(C4(c5nc6c(c(=O)[nH]5)CN(C(=O)[C@H](O)c5cccc(Cl)c5)CCC6)CC4)c3)cc2)CC1 [40-15],< 50,< 3
CC(C)c1csc(C2(c3nc4c(c(=O)[nH]3)CN(C(=O)Cc3cccc(-c5cccc(Cl)c5)c3)CCC4)CC2)c1 [18-30],< 50,< 10
O=C(Cc1ccccc1Oc1ccccc1)N1CCCc2nc(C3(c4cccc(Cl)c4)CC3)[nH]c(=O)c2C1 [17-139],< 50,< 10
O=C([C@H](O)c1cccc(Cl)c1)N1CCCc2nc(C3(c4cccc(Cl)c4)CC3)[nH]c(=O)c2C1 [17-29],< 50,< 10
O=C([C@H](O)c1cccc(C(F)(F)F)c1)N1CCCc2nc(C3(c4cncc(-c5ccccc5)c4)CC3)[nH]c(=O)c2C1 [43-1],< 50,< 3
Cn1ncc2c(-c3cccc(C4(c5nc6c(c(=O)[nH]5)CN(C(=O)[C@H](O)c5cccc(Cl)c5)CCC6)CC4)c3)cccc21 [40-10],< 50,< 3
CC(C)C(=O)N1CCN(c2ccc(-c3cccc(C4(c5nc6c(c(=O)[nH]5)CN(C(=O)[C@H](O)c5cccc(C(F)(F)F)c5)CCC6)CC4)c3)cn2)CC1 [42-89],< 50,< 10
O=C(C(O)c1cccc(-c2cc(F)cc(Cl)c2)c1)N1CCc2nc(C3(c4ccccc4)CC3)[nH]c(=O)c2C1 (stereo not drawn) [44-11],< 50,< 10
CC(C)(C)c1cccc(-c2cccc(CC(=O)N3CCCc4nc(C5(c6ccccc6)CC5)[nH]c(=O)c4C3)c2)c1 [57-4],< 50,< 10
O=C(C(O)c1cccc(-c2cccc(C3CC3)c2)n1)N1CCc2nc(C3(c4ccccc4)CC3)[nH]c(=O)c2C1 (stereo not drawn) [48-6],< 50,< 10
O=C([C@H](O)c1cccc(C(F)(F)F)c1)N1CCCc2nc(C3(c4cccc(C5CCOCC5)c4)CC3)[nH]c(=O)c2C1 [31-7],< 50,< 10
O=C([C@H](O)c1cccc(C(F)(F)F)c1)N1CCCc2nc(C3(c4cc(CCC5CCOCC5)cs4)CC3)[nH]c(=O)c2C1 [30-6],< 50,< 10
O=C([C@H](O)c1cccc(-c2cccc(Cl)c2Cl)c1)N1CCCc2nc(C3(c4ccccc4)CC3)[nH]c(=O)c2C1 [49-42],< 50,< 10
CC(C)c1cccc(C2(c3nc4c(c(=O)[nH]3)CN(C(=O)C(O)c3cccc(-c5cccc(C(F)(F)F)c5)c3)CCC4)CC2)c1 (stereo not drawn) [17-45],< 50,–
O=C([C@H](O)c1cccc(-c2cccc(C(F)(F)F)c2)c1)N1CCCc2nc(C3(c4cncc(-c5ccccc5)c4)CC3)[nH]c(=O)c2C1 [56-5],< 50,< 10
CC(C)c1cncc(C2(c3nc4c(c(=O)[nH]3)CN(C(=O)[C@H](O)c3cccc(-c5ccc(OC(F)(F)F)cc5)c3)CC4)CC2)c1 [47-6],< 50,< 10

SMILES,IC50 [1] [nM],IC50 [2] [nM]
O=C(C(O)c1cccc(Br)c1)N1CCCc2nc(C3(c4ccccc4)CC3)[nH]c(=O)c2C1 (stereo not drawn) [17-55],< 50,–
O=C([C@H](O)c1cccc(-c2coc3ccccc23)c1)N1CCCc2nc(C3(c4cccc(Cl)c4)CC3)[nH]c(=O)c2C1 [50-8],< 50,< 3
O=C([C@H](O)c1cccc(C(F)(F)F)c1)N1CCc2nc(C3(c4cccc(Oc5ccccc5)c4)CC3)[nH]c(=O)c2C1 [14-2],< 50,< 10
CC(C)c1cc(C2(c3nc4c(c(=O)[nH]3)CN(C(=O)[C@H](O)c3cccc(C(F)(F)F)c3)CCC4)CC2)ccn1 [32-1],< 50,< 10
O=C([C@@H](O)c1cccc(C(F)(F)F)c1)N1CCCc2nc(C3(c4cccc(Cl)c4)CC3)[nH]c(=O)c2C1 [17-93],< 50,–
O=C(Cc1cccc(-c2cccc(Cl)c2)c1)N1CCc2nc(C3(c4cccc(Cl)c4)CC3)[nH]c(=O)c2C1 [14-114],< 50,–
COc1cccc(-c2cccc(C(O)C(=O)N3CCc4nc(C5(c6ccccc6)CC5)[nH]c(=O)c4C3)c2)c1 (stereo not drawn) [44-53],< 50,–
O=C(Cc1cccc(OCc2ccccc2)c1)N1CCCc2nc(C3(c4cccc(Cl)c4)CC3)[nH]c(=O)c2C1 [17-122],< 50,< 10
O=C([C@H](O)c1cccc(Cl)c1)N1CCCc2nc(C3(c4cccc(-c5ccc(Cl)cc5)c4)CC3)[nH]c(=O)c2C1 [40-7],< 50,< 10
O=C([C@H](O)c1cccc(C(F)(F)F)c1)N1CCCc2nc(C3(c4cccc(C5=CCN(CC(F)(F)F)CC5)c4)CC3)[nH]c(=O)c2C1 [42-81],< 50,< 10
CC(C)(C)c1cccc(CC(=O)N2CCCc3nc(C4(c5cccc(Cl)c5)CC4)[nH]c(=O)c3C2)c1 [17-141],< 50,< 10
CC(C)c1cccc(-c2cccc(CC(=O)N3CCCc4nc(C5(c6cccc(Cl)c6)CC5)[nH]c(=O)c4C3)c2)c1 [57-5],< 50,< 10
CC(C)c1cccc(C2(c3nc4c(c(=O)[nH]3)CN(C(=O)C(O)c3cccc(-c5ccnc(C(F)(F)F)c5)c3)CCC4)CC2)c1 (stereo not drawn) [51-1],< 50,< 10
O=C([C@H](O)c1cccc(-c2cccc(Cl)c2)c1)N1CCCc2nc(C3(c4cncc(C5CCCCC5)c4)CC3)[nH]c(=O)c2C1 [55-13],< 50,< 10
CC(C)c1cccc(C2(c3nc4c(c(=O)[nH]3)CN(C(=O)C(F)(F)c3cccc(Cl)c3)CCC4)CC2)c1 [20-8],< 50,< 10
O=C([C@H](O)c1cccc(C(F)(F)F)c1)N1CCCc2nc(C3(c4cc(CCC5COC5)cs4)CC3)[nH]c(=O)c2C1 [30-11],< 50,< 10
O=C([C@H](O)c1cccc(-c2coc3ccccc23)c1)N1CCCc2nc(C3(c4ccccc4)CC3)[nH]c(=O)c2C1 [49-46],< 50,< 3
O=C(Cc1ccccc1OCc1ccccc1)N1CCCc2nc(C3(c4ccccc4)CC3)[nH]c(=O)c2C1 [17-145],< 50,< 10
O=C(C(O)c1cccc(-c2cccc(OC(F)(F)F)c2)c1)N1CCc2nc(C3(c4cccc(F)c4)CC3)[nH]c(=O)c2C1 (stereo not drawn) [14-7],< 50,< 10
CN(C)c1ccc(-c2cccc(C3(c4nc5c(c(=O)[nH]4)CN(C(=O)[C@H](O)c4cccc(C(F)(F)F)c4)CCC5)CC3)c2)cn1 [42-13],< 50,< 3
O=C([C@H](O)c1cccc(-c2cc(F)cc(Cl)c2)c1)N1CCCc2nc(C3(c4cccc(Cl)c4)CC3)[nH]c(=O)c2C1 [50-18],< 50,< 3
CC(C)c1cncc(C2(c3nc4c(c(=O)[nH]3)CN(C(=O)C(F)(F)c3cccc(Cl)c3)CC4)CC2)c1 [22-10],< 50,–
O=C(Cc1ccccc1)N1CCC(c2cccc(C3(c4nc5c(c(=O)[nH]4)CN(C(=O)[C@H](O)c4cccc(C(F)(F)F)c4)CCC5)CC3)c2)CC1 [31-9],< 50,< 10
O=C(C(O)c1cccc(S(F)(F)(F)(F)F)c1)N1CCCc2nc(C3(c4cccc(Cl)c4)CC3)[nH]c(=O)c2C1 (stereo not drawn) [17-27],< 50,< 10
O=C([C@H](O)c1cccc(Cl)c1)N1CCCc2nc(C3(c4cccc(-c5cccnc5)c4)CC3)[nH]c(=O)c2C1 [40-3],< 50,< 10
O=C([C@H](O)c1cccc(-c2cccc(C(F)(F)F)c2)c1)N1CCCc2nc(C3(c4cccc(C5CCCCC5)c4)CC3)[nH]c(=O)c2C1 [52-2],< 50,< 10
COc1ccc(C(=O)N2CC=C(c3cccc(C4(c5nc6c(c(=O)[nH]5)CN(C(=O)[C@H](O)c5cccc(C(F)(F)F)c5)CCC6)CC4)c3)CC2)cc1OC1CCCC1 [42-82],< 50,< 3
